Experimental data as given in patent publication US20230340060A1, “NOVEL MEANS TO PREDICT AND MANIPULATE NMDA RECEPTOR-MEDIATED TOXICITY” (FundaMental Pharma GmbH, priority 2020, published 2023).

How the values were obtained:
HEK293 cells = assay: Luminescent Cytotoxicity Assay (CytoTox-Glo) after transfection with GluN1 and GluN2A or GluN2B constructs; format: cell-based, human; conditions: for cell death: HEK293 cells; for susceptibility to NMDA receptor mediated toxicity: subject carrying the variant, based on HEK293 cell death, with GluN1, 48 h after transfection
Protocol: HEK293 Cell Culture HEK293 cells were cultured in Dulbecco's Modified Eagle Medium (DMEM, Gibco™, 41965-039) supplement with 10% Fetal Bovine Serum (FBS, Gibco™, 10270), 1% Sodium Pyruvate (Gibco™, 11360070), 1% MEM NEAA (Gibco™, 11140035) and 0.5% Penicillin-Streptomycin (P-S; Sigma, P0781) and Passage15-25 were used for experiments.
To test the cytotoxicity of compounds according to the present invention, HEK293 cells (70-80% confluent) were transfected 24 hours after plating with expression vectors for both GluN1 and GluN2A or GluN2B, respectively (1:1; 2 μg plasmids in total per 6-cm dishes) with Lipofectamine 2000 according to manufacturer's instructions. The relative number of dead cells in the population at the indicated time points after transfection was measured with the CytoTox-Glo™ Cytotoxicity assay (Promega, G9290) according to manufacturer's instruction with minor modification. Briefly, 10% of total medium were mixed with 10 μL AAF-amino luciferin to reach a final volume at 200 μL with water, the dead cell relative luminescence units (DRLU) was measured by GloMax (Promega) in a 96 well white bottom polystyrene microplate (Corning Costar®, 3912). After all the measurements, lysis reagents have been added to the cells and 10% of lysate was used for the total cell relative luminescence units (TRLU) measurement. Cell death was calculated by the following equations: […]
In order to investigate the role of GluN2A and GluN2B in NMDA receptor mediated toxicity, the inventors have built constructs and transfected the plasmids into HEK293 cells.
In a next step, the inventors tried to assess the importance of the isoleucine and other amino acid residues in the inventive sequence motif. The inventors have built constructs containing above-mentioned mutants and transfected the plasmids into HEK293 cells.
In view of the results obtained for the GluN2A and GluN2B mutants of the inventive sequence motif in example 3, the inventors further tested the impact of naturally occurring variations in said sequence motif in the human gene pool on susceptibility towards NMDA receptor mediated toxicity. The inventors have built constructs containing above-mentioned mutants selected from the SNP database from NCBI (for GRIN2A, https://www.ncbi.nlm.nih.gov/projects/SNP/snp_ref.cgi?showRare=on&chooseRs=coding&g o=Go&locusId=2903, and for GRIN2B, https://www.ncbi.nlm.nih.gov/projects/SNP/snp_ref.cgi?showRare=on&chooseRs=coding&g o=Go&locusId=2904) and transfected the plasmids into HEK293 cells.

[1] = system: primary mouse hippocampal neurons; assay: Neuronal death assessment after rAAV-mediated expression of polypeptides; format: cell-based; conditions: rAAV infection on DIV3, fixed on DIV17, Hoechst staining, polypeptide fused to HA tag and GPI anchor
Protocol: Primary mouse hippocampal were prepared and maintained as known to the skilled person. Briefly, hippocampi from P0 C57Bl/6N mice were dissociated and plated at a density of […] in Growth Medium (GM), consisting of Neurobasal A medium (Gibco™, 10888022), 2% serum free B27™ Supplement (Gibco™, 17504044), 1% rat serum (Biowest, S2150), 0.5 mM L-Glutamine (Sigma, G7513) and 0.5% P-S. Cytosine P-D-arabinofuranoside (AraC; Sigma, C1768; 2.8 μM) was added on DIV3 to prevent the proliferation of glial cells. From DIV8, half of the medium was replaced by GM without Rat serum every 48 h until being used for experiments. […]
Neurons were fixed in 4% paraformaldehyde with 4% sucrose in PBS for 15 min followed with Hoechst staining. […] Cell death is analyzed by Cell Profiler and Cell Analyzer software.
In a next step, the inventors assessed whether the inventive sequence motif on its own is sufficient to induce NMDA receptor mediated toxicity. […] Neurons were fixed on DIV17, stained with Hoechst and cell death was quantified.

[2] = combined expression with GluN1, 48 h after transfection

Substance | cell death (HEK293 cells; [2]) | susceptibility to NMDA receptor mediated toxicity (HEK293 cells) | other results
GluN2A (S869R): GluN2A with naturally occurring substitution S869R | also toxic | regular susceptibility | –
SEQ ID NO:10: mutant GluN2A derived polypeptide comprising SEQ ID NO:2, fused to HA tag and GPI anchor (TGVCSDRPGLLFSISRGAYSCAHGVHIEEKKKS; GluN2A core motif mutated with 2 Ile residues mutated to Ala residues plus flanking regions) | – | – | cell death [1]: not able to induce cell death; cell death ([1]; listed as SEQ ID NO: 10): greatly reduces the cell death levels to approx. the levels of untransfected control
GluN2B-I2A2AH: GluN2B with substitutions I868A, I872A and A876H | essentially abrogated any toxic effect | – | –
GluN2B (H873R): GluN2B with naturally occurring substitution H873R | – | decreased susceptibility | –
GluN2A-I2A2: GluN2A with substitutions I867A and I871A (SEQ ID NO:2) | still show some toxic properties | – | cell death (HEK293 cells; combined expression with GluN1, 48 h after transfection, listed as GluN2A SEQ ID NO:2): at least reduced levels of toxicity
GluN2A-13A3: GluN2A with substitutions I863A, I867A and I871A (SEQ ID NO:3) | still show some toxic properties | – | cell death (HEK293 cells; combined expression with GluN1, 48 h after transfection, listed as GluN2A SEQ ID NO:3): at least reduced levels of toxicity
GluN2A-IAHA: GluN2A with substitutions I867A, I871A and H875A (SEQ ID NO:21) | at least reduced levels of toxicity | – | –
GluN2A (I876N): GluN2A with naturally occurring substitution I876N | also toxic | increased susceptibility | susceptibility to NMDA receptor mediated toxicity (HEK293 cells; listed as SEQ ID NO:6): significantly increased susceptibility
GluN2B: wild type rat GluN2B (UniProtKB-Q00960) comprising canonical sequence SEQ ID NO:7 | induced cell death | regular susceptibility | –
GluN1: wild type rat GluN1 (UniProtKB-P35439), control when expressed alone | – | – | cell death (HEK293 cells; transfected alone (control), 48 h after transfection): neither GFP nor GluN1 alone (both serving as controls) could induce cell death
GluN2A (I867M): GluN2A with naturally occurring substitution I867M | also toxic | increased susceptibility | –
GluN2B-12A2: GluN2B with substitutions I868A and I872A (SEQ ID NO:21) | essentially abrogated any toxic effect | – | –
GluN2A: wild type rat GluN2A (UniProtKB-Q00959) comprising canonical sequence SEQ ID NO:1 | induced cell death | regular susceptibility | –
